Tests used:
Experiment in all cases: SelectScreen Z'LYTE kinase profiling
Format in all cases: biochemical
Conditions in all cases: ATP at apparent KM
[1] = biological target: PRKCD (PKC delta) (Homo sapiens, UniProt Q05655)
Description: (§1) protein kinases at a compound concentration of 1 µM. Measurements were performed in duplicates
(§2) and at the particular apparent ATP KM of each individual kinase employing the activity based Z’LYTE®
(§3) kinase assay of the SelectScreen® Kinase Profiling Services (ThermoFisher Scientific).
(§4) kinases at a compound concentration of 1 µM. Measurements were performed in duplicates and at
(§5) the particular apparent ATP KM of each individual kinase employing the activity based Z’LYTE® kinase
(§6) assay of the SelectScreen® Kinase Profiling Services (ThermoFisher Scientific).

[2] = biological target: T1, PRKCN (PKD3) (Homo sapiens, UniProt O94806)
T1 sequence (O94806 1-890): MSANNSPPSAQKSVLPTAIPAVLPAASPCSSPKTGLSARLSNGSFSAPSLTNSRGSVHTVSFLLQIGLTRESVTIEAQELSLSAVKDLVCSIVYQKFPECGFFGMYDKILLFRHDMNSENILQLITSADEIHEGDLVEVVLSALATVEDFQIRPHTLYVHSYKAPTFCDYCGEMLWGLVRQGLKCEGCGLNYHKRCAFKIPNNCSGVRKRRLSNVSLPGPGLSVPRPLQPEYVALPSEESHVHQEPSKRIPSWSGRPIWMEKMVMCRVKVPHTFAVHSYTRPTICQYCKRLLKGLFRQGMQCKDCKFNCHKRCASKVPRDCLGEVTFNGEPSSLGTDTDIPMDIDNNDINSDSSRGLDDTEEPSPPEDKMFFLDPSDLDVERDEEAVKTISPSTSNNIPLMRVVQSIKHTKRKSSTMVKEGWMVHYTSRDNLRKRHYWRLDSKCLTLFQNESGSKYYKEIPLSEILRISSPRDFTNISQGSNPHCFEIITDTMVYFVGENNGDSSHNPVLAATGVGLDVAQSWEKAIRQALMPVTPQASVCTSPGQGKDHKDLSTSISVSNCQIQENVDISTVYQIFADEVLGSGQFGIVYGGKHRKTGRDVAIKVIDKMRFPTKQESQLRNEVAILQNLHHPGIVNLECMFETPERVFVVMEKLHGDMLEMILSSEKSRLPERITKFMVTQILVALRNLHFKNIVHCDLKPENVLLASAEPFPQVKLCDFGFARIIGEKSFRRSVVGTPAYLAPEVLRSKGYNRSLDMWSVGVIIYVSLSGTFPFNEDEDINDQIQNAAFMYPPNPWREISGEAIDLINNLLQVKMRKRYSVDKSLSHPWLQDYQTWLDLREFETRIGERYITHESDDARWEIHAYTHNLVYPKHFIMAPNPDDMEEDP
Description: as §1, §2, §3, §4, §5, §6

[3] = biological target: RPS6KA1 (RSK1) (Homo sapiens, UniProt Q15418)
Sequence of RPS6KA1 (RSK1) (Q15418 whole entry): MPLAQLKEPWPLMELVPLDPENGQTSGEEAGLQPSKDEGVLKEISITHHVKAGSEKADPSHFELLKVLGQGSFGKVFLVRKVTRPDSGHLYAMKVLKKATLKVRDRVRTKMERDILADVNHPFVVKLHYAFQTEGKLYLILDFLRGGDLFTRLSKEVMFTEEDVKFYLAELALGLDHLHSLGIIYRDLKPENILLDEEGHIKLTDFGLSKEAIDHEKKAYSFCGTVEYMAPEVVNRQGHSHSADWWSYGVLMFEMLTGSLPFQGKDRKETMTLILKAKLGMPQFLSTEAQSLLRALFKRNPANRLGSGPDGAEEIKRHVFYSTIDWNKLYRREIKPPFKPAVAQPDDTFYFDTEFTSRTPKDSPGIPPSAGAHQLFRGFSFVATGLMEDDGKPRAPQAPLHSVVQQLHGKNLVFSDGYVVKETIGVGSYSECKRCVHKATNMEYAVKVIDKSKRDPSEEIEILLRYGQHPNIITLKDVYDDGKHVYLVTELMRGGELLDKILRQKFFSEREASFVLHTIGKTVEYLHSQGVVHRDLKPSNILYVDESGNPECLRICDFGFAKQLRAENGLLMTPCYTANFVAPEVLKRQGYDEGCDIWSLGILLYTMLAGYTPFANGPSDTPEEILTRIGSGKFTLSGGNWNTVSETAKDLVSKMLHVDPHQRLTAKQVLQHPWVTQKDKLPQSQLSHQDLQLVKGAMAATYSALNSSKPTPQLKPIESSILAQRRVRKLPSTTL
Description: as §1, §2, §3, §4, §5, §6

[4] = biological target: EGFR (ErbB1) (Homo sapiens, UniProt P00533)
Description: as §1, §2, §3, §4, §5, §6

[5] = biological target: PRKCG (PKC gamma) (Homo sapiens, UniProt P05129)
Description: as §1, §2, §3, §4, §5, §6

[6] = biological target: RPS6KA2 (RSK3) (Homo sapiens, UniProt Q15349)
Sequence of RPS6KA2 (RSK3) (Q15349 whole entry): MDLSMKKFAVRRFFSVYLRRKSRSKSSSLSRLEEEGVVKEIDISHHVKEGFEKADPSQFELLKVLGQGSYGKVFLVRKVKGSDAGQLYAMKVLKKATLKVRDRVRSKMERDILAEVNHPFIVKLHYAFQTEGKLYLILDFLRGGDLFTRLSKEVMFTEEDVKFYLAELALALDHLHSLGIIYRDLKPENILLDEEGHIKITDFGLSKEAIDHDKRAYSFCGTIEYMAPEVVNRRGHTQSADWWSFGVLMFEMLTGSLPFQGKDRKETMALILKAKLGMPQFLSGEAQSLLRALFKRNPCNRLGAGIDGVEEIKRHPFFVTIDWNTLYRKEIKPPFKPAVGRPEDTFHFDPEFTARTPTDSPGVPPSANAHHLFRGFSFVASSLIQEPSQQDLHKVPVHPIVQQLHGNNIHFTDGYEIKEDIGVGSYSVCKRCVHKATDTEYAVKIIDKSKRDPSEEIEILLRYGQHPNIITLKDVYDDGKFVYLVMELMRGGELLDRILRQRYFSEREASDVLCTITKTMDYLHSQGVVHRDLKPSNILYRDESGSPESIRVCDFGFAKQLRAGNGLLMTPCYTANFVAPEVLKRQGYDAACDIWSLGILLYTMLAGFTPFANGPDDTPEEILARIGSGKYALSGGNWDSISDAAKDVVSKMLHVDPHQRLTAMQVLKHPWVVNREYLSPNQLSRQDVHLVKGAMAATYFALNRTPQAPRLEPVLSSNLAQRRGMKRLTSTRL
Description: as §1, §2, §3, §4, §5, §6

[7] = biological target: FGFR1 (Homo sapiens, UniProt P11362)
Description: as §1, §2, §3, §4, §5, §6

[8] = biological target: CDC42 BPA (MRCKA) (Homo sapiens, UniProt Q5VT25)
Description: as §1, §2, §3, §4, §5, §6

[9] = biological target: MAPK3 (ERK1) (Homo sapiens, UniProt P27361)
Sequence of MAPK3 (ERK1) (P27361 whole entry): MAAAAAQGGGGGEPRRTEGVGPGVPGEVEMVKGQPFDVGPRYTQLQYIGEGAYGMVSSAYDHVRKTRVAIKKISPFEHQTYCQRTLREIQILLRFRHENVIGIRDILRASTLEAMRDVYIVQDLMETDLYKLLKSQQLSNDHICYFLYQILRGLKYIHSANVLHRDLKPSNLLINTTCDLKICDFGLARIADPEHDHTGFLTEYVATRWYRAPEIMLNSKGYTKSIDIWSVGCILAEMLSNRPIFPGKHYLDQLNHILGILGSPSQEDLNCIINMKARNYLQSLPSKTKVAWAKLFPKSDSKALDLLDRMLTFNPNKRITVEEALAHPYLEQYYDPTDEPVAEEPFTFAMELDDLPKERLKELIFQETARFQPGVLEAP
Description: as §1, §2, §3, §4, §5, §6

[10] = biological target: CDK1/cyclin B (Homo sapiens, UniProt P06493)
Description: as §1, §2, §3, §4, §5, §6

[11] = biological target: GRK5 (Homo sapiens, UniProt P34947)
Description: as §1, §2, §3, §4, §5, §6

[12] = biological target: RPS6KA5 (MSK1) (Homo sapiens, UniProt O75582)
Sequence of RPS6KA5 (MSK1) (O75582 whole entry): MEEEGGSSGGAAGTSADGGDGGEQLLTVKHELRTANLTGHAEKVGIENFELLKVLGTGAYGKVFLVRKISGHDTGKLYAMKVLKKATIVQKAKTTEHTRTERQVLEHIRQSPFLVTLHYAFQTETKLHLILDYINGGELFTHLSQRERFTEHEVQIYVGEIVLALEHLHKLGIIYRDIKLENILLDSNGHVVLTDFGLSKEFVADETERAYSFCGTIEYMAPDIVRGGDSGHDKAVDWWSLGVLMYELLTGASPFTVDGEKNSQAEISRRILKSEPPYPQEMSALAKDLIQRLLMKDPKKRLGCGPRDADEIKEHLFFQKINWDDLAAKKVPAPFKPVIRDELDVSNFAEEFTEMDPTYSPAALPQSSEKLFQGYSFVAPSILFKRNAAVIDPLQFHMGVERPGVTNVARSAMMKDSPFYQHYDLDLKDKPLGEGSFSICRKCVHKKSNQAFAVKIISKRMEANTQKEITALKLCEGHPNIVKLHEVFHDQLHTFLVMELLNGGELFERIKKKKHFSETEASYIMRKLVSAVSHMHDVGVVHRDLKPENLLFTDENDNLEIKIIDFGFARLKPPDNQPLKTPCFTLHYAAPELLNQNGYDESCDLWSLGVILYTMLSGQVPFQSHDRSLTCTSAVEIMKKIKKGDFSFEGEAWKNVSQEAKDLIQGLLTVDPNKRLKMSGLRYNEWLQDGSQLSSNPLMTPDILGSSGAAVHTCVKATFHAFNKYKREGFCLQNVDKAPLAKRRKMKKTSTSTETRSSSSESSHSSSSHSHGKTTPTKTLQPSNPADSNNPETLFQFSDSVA
Description: as §1, §2, §3, §4, §5, §6

[13] = biological target: BTK (Homo sapiens, UniProt Q06187)
Sequence of BTK (Q06187 whole entry): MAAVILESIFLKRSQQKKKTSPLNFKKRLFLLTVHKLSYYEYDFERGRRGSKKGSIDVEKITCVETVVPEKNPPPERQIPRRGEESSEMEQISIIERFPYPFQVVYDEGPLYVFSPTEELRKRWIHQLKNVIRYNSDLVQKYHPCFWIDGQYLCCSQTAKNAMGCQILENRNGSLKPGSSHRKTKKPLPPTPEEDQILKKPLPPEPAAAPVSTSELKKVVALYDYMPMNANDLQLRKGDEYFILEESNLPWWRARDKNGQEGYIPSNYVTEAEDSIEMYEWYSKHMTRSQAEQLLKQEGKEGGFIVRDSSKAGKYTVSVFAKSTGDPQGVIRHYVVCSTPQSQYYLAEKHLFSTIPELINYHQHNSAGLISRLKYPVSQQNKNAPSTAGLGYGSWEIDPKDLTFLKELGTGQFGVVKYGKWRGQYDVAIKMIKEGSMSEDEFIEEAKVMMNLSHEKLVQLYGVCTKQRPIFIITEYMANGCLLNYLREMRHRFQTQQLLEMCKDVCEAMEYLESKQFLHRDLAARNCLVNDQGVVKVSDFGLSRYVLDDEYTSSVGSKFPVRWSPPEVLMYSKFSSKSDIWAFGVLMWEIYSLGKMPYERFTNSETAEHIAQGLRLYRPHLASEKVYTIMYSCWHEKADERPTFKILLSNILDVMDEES
Description: as §1, §2, §3, §4, §5, §6

[14] = biological target: ROCK1 (Homo sapiens, UniProt Q13464)
Description: as §1, §2, §3, §4, §5, §6

[15] = biological target: IGF1R (Homo sapiens, UniProt P08069)
Sequence of IGF1R (P08069 31-1367): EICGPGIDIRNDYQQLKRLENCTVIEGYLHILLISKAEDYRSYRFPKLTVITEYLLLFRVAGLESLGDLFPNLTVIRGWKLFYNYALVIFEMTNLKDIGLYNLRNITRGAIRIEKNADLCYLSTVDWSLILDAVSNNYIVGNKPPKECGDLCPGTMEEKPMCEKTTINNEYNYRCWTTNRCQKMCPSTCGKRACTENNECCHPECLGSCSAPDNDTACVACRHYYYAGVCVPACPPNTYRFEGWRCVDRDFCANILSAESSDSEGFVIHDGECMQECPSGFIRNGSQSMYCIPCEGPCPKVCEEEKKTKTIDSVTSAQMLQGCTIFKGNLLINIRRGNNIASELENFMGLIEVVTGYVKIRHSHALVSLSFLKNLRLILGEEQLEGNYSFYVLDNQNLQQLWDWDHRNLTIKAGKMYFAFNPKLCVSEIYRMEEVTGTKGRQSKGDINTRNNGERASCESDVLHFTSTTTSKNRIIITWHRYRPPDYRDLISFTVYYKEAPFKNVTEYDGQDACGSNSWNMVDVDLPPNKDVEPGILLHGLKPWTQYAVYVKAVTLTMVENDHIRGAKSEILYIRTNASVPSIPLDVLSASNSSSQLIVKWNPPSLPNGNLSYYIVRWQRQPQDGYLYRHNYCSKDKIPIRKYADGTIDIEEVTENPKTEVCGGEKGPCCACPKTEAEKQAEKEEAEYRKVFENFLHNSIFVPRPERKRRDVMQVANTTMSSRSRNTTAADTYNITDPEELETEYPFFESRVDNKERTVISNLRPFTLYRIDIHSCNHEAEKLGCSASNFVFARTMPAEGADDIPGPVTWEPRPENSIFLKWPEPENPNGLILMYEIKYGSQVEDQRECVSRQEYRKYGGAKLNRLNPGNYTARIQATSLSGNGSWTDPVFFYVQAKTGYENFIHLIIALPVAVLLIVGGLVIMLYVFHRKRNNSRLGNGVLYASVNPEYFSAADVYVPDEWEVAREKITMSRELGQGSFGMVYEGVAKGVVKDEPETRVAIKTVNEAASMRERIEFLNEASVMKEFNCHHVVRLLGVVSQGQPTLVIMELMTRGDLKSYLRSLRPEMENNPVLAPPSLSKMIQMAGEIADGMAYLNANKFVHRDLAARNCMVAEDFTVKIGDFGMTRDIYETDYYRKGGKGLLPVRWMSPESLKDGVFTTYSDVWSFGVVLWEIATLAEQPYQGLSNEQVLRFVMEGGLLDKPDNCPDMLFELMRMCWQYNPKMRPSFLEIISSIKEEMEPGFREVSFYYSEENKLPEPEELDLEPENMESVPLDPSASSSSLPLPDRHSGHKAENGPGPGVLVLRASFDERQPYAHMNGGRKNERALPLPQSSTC

[16] = biological target: CAMK1D (CaMKI delta) (Homo sapiens, UniProt Q8IU85)
Sequence of CAMK1D (CaMKI delta) (Q8IU85 whole entry): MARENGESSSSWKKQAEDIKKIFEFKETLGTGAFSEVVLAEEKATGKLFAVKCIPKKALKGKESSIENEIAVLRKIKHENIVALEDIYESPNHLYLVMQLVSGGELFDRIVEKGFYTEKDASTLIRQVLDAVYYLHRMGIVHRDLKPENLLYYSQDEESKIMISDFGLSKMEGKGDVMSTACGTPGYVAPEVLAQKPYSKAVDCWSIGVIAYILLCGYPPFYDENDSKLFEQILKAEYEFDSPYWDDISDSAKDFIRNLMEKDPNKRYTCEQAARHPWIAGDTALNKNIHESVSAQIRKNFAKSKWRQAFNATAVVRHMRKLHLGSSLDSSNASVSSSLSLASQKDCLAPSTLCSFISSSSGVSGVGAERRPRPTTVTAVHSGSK
Description: as §1, §2, §3, §4, §5, §6

[17] = biological target: MET (cMet) (Homo sapiens, UniProt P08581)
Description: as §1, §2, §3, §4, §5, §6

[18] = biological target: MAPK14 (p38 alpha) Direct (Homo sapiens, UniProt Q16539)
Description: as §1, §2, §3, §4, §5, §6

| SMILES | inhibition at 1 µM [1] [%] | inhibition at 1 µM [2] [%] | inhibition at 1 µM [3] [%] | inhibition at 1 µM [4] [%] | inhibition at 1 µM [5] [%] | inhibition at 1 µM [6] [%] | inhibition at 1 µM [7] [%] | inhibition at 1 µM [8] [%] | inhibition at 1 µM [9] [%] | inhibition at 1 µM [10] [%] | inhibition at 1 µM [11] [%] | inhibition at 1 µM [12] [%] | inhibition at 1 µM [13] [%] | inhibition at 1 µM [14] [%] | inhibition at 1 µM [15] [%] | inhibition at 1 µM [16] [%] | inhibition at 1 µM [17] [%] | inhibition at 1 µM [18] [%] |
| --- | --- | --- | --- | --- | --- | --- | --- | --- | --- | --- | --- | --- | --- | --- | --- | --- | --- | --- |
| C=CC(=O)Nc1ccc2c(c1)n(C1CCN(Cc3ccc(-c4nc5cc[nH]c(=O)c5cc4-c4ccccc4)cc3)CC1)c(=O)n2C [24b] | 0 | 10 | 14 | -8 | -3 | 25 | 7 | 3 | 0 | 3 | -10 | 8 | 12 | 16 | 6 | 9 | 1 | 2 |
| C=CC(=O)Nc1cccc(C(=O)NC2CCN(Cc3ccc(-c4nc5cc[nH]c(=O)c5cc4-c4ccccc4)cc3)CC2)c1 [30b] | 9 | 14 | 27 | 1 | 0 | 33 | 10 | 2 | 3 | 3 | -1 | 13 | 22 | 34 | 1 | 3 | 0 | 6 |
| C=CC(=O)Nc1cc(NC(=O)NC2CCN(Cc3ccc(-c4nc5cc[nH]c(=O)c5cc4-c4ccccc4)cc3)CC2)ccc1Cl [compound 27] | 6 | 16 | 22 | 2 | -6 | 31 | 24 | 8 | 3 | 3 | -2 | 13 | 10 | 54 | 7 | 12 | 4 | 10 |
